Like-named read-outs stand apart in the source and are kept apart here.
System: SMN protein
Experiment: cellular SMN ELISA (SMN protein elevation) in myoblast cell line from SMNdelta7 mouse model
Type: cell-based
Experimental: A cellular SMN ELISA was used to measure the effects of low molecular weight compounds on SMN protein elevation. Cells from a myoblast cell line derived from the SMNdelta7 mouse model (kind gift from Steve Burden, NYU) were seeded into a 384-well plate at a density of 3000 cells/well and treated with compounds for 24 hours. ELISA capture plates were prepared by coating 384-well plates (Immulon 4HBX) with 0.5 ug/mL of anti-SMN mAb (BD Science, Catalog number 610647) at 4° C. overnight. The plates were washed 5 times with 110 uL of PBS-Tween (0.05% Tween-20, PBST), blocked with 100 uL of 1% BSA in PBST for 2 hours and washed (5 times) with 100 uL of PBST. After 24 hours of compound treatment cells were lysed in a modified RIPA-buffer, on ice for 1 hour. 20 uL of lysate and 20 uL of 1% BSA were then added to the ELISA capture plates and incubated at 4° C. overnight. Plates were washed (5 times) with PBST and then incubated with 1:100 dilution of primary rabbit anti-SMN polyclonal antibody (Santa cruz, Catalog number SC-15320) at room temperature for 1 hour and subsequently washed (5 times) with 110 uL of PBST. This was followed by addition of 1:100 Goat anti-Rabbit IgG-HRP linked (Cell Signaling, Catalog number 7074) secondary antibody for 1 hour. Plates were then washed with PBST and incubated with 40 uL TMB substrate (Cell Signaling, Catalog number 7004 L) at room temperature for 1-10 minutes with shaking. The reaction was stopped by addition of 40 uL of stop solution (Cell signaling, Catalog number 7002 L) and absorption was measured at 450 nm. Data was reported as fold activation over DMSO control, and EC50.
ELISA assay condition 1: compound concentration range 20 nM-10 uM; ELISA assay condition 2: compound concentration 100 pM-10 uM. Data generated in Biological Example 1 using ELISA conditions 1 or 2.

[1] = Biological Example 1, SMN ELISA, SMNdelta7 mouse myoblasts, 24 hours compound treatment
[2] = Biological Example 1, SMN ELISA, SMNdelta7 mouse myoblasts, 24 hours compound treatment, read-out: SMN Activity (EC50)
[3] = comparison of unsubstituted, ortho-hydroxy and ortho-alkoxy pyridazines, as in Biological Example 1
[4] = comparison of unsubstituted, ortho-hydroxy and ortho-alkoxy pyridazines, as in Biological Example 1, read-out: SMN ELISA EC50

Question: For `CN(c1ccc(-c2cc3cccnc3cc2O)nn1)C1CC(C)(C)NC(C)(C)C1` [Example 1-1, 6-(6-(Methyl(2,2,6,6-tetramethylpiperidin-4-yl)amino)pyridazin-3-yl)quinolin-7-ol], which “SMN Activity (fold activation over DMSO control)” value [1] is on record?
Answer: 2.9 fold

Question: And the EC50 [2]?
Answer: 20 nM

Question: And the Fold activation [3]?
Answer: 2.9

Question: What about the EC50 [4] of the same molecule?
Answer: 20 nM

Question: Which results are given for `CN(c1ccc(-c2cc3cccnc3cc2O)nn1)C1CC(C)(C)N(C)C(C)(C)C1` [Example 1-2, 6-(6-(methyl(1,2,2,6,6-pentamethylpiperidin-4-yl)amino)pyridazin-3-yl)quinolin-7-ol]?
Answer: SMN Activity (fold activation over DMSO control) [1]: 2.4 fold; EC50 [2]: 340 nM

Question: Which results are given for `CN1C[C@@H]2CN(c3ccc(-c4cc5cccnc5cc4O)nn3)C[C@@H]2C1` [Example 1-3, 6-(6-((3aR,6aS)-5-methylhexahydropyrrolo[3,4-c]pyrrol-2(1H)-yl)pyridazin-3-yl)quinolin-7-ol]?
Answer: SMN Activity (fold activation over DMSO control) [1]: 2.5 fold; EC50 [2]: 255 nM

Question: What does the source list for `Cc1ccc2cc(-c3ccc(N(C)C4CC(C)(C)NC(C)(C)C4)nn3)c(O)cc2n1` [Example 2-1, 2-methyl-6-(6-(methyl(2,2,6,6-tetramethylpiperidin-4-yl)amino)pyridazin-3-yl)quinolin-7-ol]?
Answer: SMN Activity (fold activation over DMSO control) [1]: 3.0 fold; EC50 [2]: 20 nM

Question: What does the source list for `CN(c1ccc(-c2cc3cnccc3cc2O)nn1)C1CC(C)(C)N(C)C(C)(C)C1` [Example 3-1, 7-(6-(methyl(1,2,2,6,6-pentamethylpiperidin-4-yl)amino)pyridazin-3-yl)isoquinolin-6-ol]?
Answer: SMN Activity (fold activation over DMSO control) [1]: 3.1 fold; EC50 [2]: 70 nM

Question: With `CN(c1ccc(-c2cc3cnccc3cc2O)nn1)C1CC(C)(C)NC(C)(C)C1` [Example 3-2, 7-(6-(methyl(2,2,6,6-tetramethylpiperidin-4-yl)amino)pyridazin-3-yl)isoquinolin-6-ol] as the molecule, how does the “SMN Activity (fold activation over DMSO control)” value [1] read?
Answer: 2.75 fold

Question: And the EC50 [2]?
Answer: 5 nM

Question: And the Fold activation [3]?
Answer: 2.8

Question: And the EC50 [4]?
Answer: 5 nM

Question: How did the “SMN Activity (fold activation over DMSO control)” value [1] turn out when `CC1(C)CC(Oc2ccc(-c3cc4cnccc4cc3O)nn2)CC(C)(C)N1` [Example 3-3, 7-(6-((2,2,6,6-tetramethylpiperidin-4-yl)oxy)pyridazin-3-yl)isoquinolin-6-ol] was run?
Answer: 2.5 fold

Question: And the EC50 [2]?
Answer: 83 nM

Question: For `CN1C[C@@H]2CN(c3ccc(-c4cc5cnccc5cc4O)nn3)C[C@@H]2C1` [Example 3-4, 7-(6-((3aR,6aS)-5-methylhexahydropyrrolo[3,4-c]pyrrol-2(1H)-yl)pyridazin-3-yl)isoquinolin-6-ol], which “SMN Activity (fold activation over DMSO control)” value [1] is on record?
Answer: 2.3 fold

Question: And the EC50 [2]?
Answer: 60 nM

Question: For `CN(c1ccc(-c2cc3c(C4CC4)nccc3cc2O)nn1)C1CC(C)(C)NC(C)(C)C1` [Example 3-5, 1-cyclopropyl-7-(6-(methyl(2,2,6,6-tetramethylpiperidin-4-yl)amino)pyridazin-3-yl)isoquinolin-6-ol], which “SMN Activity (fold activation over DMSO control)” value [1] is on record?
Answer: 2.54 fold

Question: And the EC50 [2]?
Answer: 14 nM

Question: Which “SMN Activity (fold activation over DMSO control)” value [1] does the source give for `CN(c1ccc(-c2cc3c(O)nccc3cc2O)nn1)C1CC(C)(C)NC(C)(C)C1` [Example 3-6, 7-(6-(methyl(2,2,6,6-tetramethylpiperidin-4-yl)amino)pyridazin-3-yl)isoquinoline-1,6-diol] here?
Answer: 2.43 fold

Question: And the EC50 [2]?
Answer: 8 nM

Question: `CN(c1ccc(-c2cc3c(C#N)nccc3cc2O)nn1)C1CC(C)(C)NC(C)(C)C1` [Example 3-7, 6-hydroxy-7-(6-(methyl(2,2,6,6-tetramethylpiperidin-4-yl)amino)pyridazin-3-yl)isoquinoline-1-carbonitrile] was tested. Which “SMN Activity (fold activation over DMSO control)” value [1] did it give?
Answer: 2.9 fold

Question: And the EC50 [2]?
Answer: 2 nM

Question: Which results are given for `CN(c1ccc(-c2cc3ccncc3cc2O)nn1)C1CC(C)(C)NC(C)(C)C1` [Example 4-1, 6-(6-(methyl(2,2,6,6-tetramethylpiperidin-4-yl)amino)pyridazin-3-yl)isoquinolin-7-ol]?
Answer: SMN Activity (fold activation over DMSO control) [1]: 2.6 fold; EC50 [2]: 6 nM; Fold activation [3]: 2.6; EC50 [4]: 6 nM

Question: `CN(c1ccc(-c2c(O)ccc3cccnc23)nn1)C1CC(C)(C)NC(C)(C)C1` [Example 5-1, 8-(6-(methyl(2,2,6,6-tetramethylpiperidin-4-yl)amino)pyridazin-3-yl)quinolin-7-ol] was tested. Which “SMN Activity (fold activation over DMSO control)” value [1] did it give?
Answer: 2.6 fold

Question: What about the EC50 [2] of the same molecule?
Answer: 300 nM

Question: What does the source list for `CN(c1ccc(-c2cc3ncccc3cc2O)nn1)C1CC(C)(C)NC(C)(C)C1` [Example 6-1, 7-(6-(methyl(2,2,6,6-tetramethylpiperidin-4-yl)amino)pyridazin-3-yl)quinolin-6-ol]?
Answer: SMN Activity (fold activation over DMSO control) [1]: 2.82 fold; EC50 [2]: 7 nM; Fold activation [3]: 2.8; EC50 [4]: 7 nM

Question: Which “SMN Activity (fold activation over DMSO control)” value [1] does the source give for `Cc1ccc2cc(O)c(-c3ccc(N(C)C4CC(C)(C)NC(C)(C)C4)nn3)cc2n1` [Example 6-2, 2-methyl-7-(6-(methyl(2,2,6,6-tetramethylpiperidin-4-yl)amino)pyridazin-3-yl)quinolin-6-ol] here?
Answer: 3.2 fold

Question: What about the EC50 [2] of the same molecule?
Answer: 4 nM

Question: With `CN(c1ccc(-c2cc3cc(Cl)cnc3cc2O)nn1)C1CC(C)(C)NC(C)(C)C1` [Example 7-1, 3-chloro-6-(6-(methyl(2,2,6,6-tetramethylpiperidin-4-yl)amino)pyridazin-3-yl)quinolin-7-ol] as the molecule, how does the “SMN Activity (fold activation over DMSO control)” value [1] read?
Answer: 2.8 fold

Question: What about the EC50 [2] of the same molecule?
Answer: 14 nM

Question: `CN(c1ccc(-c2cc3cc(Br)cnc3cc2O)nn1)C1CC(C)(C)NC(C)(C)C1` [Example 7-2, 3-bromo-6-(6-(methyl(2,2,6,6-tetramethylpiperidin-4-yl)amino)pyridazin-3-yl)quinolin-7-ol] was tested. Which “SMN Activity (fold activation over DMSO control)” value [1] did it give?
Answer: 2.6 fold

Question: What about the EC50 [2] of the same molecule?
Answer: 8 nM

Question: What does the source list for `CN(c1ccc(-c2cc3cc(C#N)cnc3cc2O)nn1)C1CC(C)(C)NC(C)(C)C1` [Example 7-3, 7-hydroxy-6-(6-(methyl(2,2,6,6-tetramethylpiperidin-4-yl)amino)pyridazin-3-yl)quinoline-3-carbonitrile]?
Answer: SMN Activity (fold activation over DMSO control) [1]: 3.1 fold; EC50 [2]: 8 nM

Question: `CN(c1ccc(-c2cc3cc(-c4cn(C)cn4)cnc3cc2O)nn1)C1CC(C)(C)NC(C)(C)C1` [Example 7-4, 6-(6-(methyl(2,2,6,6-tetramethylpiperidin-4-yl)amino)pyridazin-3-yl)-3-(1-methyl-1H-imidazol-4-yl)quinolin-7-ol] was tested. Which “SMN Activity (fold activation over DMSO control)” value [1] did it give?
Answer: 2.2 fold

Question: And the EC50 [2]?
Answer: 200 nM

Question: What does the source list for `CN(c1ccc(-c2cc3cc(-n4ccnc4)cnc3cc2O)nn1)C1CC(C)(C)NC(C)(C)C1` [Example 7-5, 3-(1H-imidazol-1-yl)-6-(6-(methyl(2,2,6,6-tetramethylpiperidin-4-yl)amino)pyridazin-3-yl)quinolin-7-ol]?
Answer: SMN Activity (fold activation over DMSO control) [1]: 2.5 fold; EC50 [2]: 50 nM

Question: How did the “SMN Activity (fold activation over DMSO control)” value [1] turn out when `CN(c1ccc(-c2cc3cc(O)cnc3cc2O)nn1)C1CC(C)(C)NC(C)(C)C1` [Example 7-6, 6-(6-(methyl(2,2,6,6-tetramethylpiperidin-4-yl)amino)pyridazin-3-yl)quinoline-3,7-diol] was run?
Answer: 2.9 fold

Question: What about the EC50 [2] of the same molecule?
Answer: 300 nM

Question: For `CCc1cnc2cc(O)c(-c3ccc(N(C)C4CC(C)(C)NC(C)(C)C4)nn3)cc2c1` [Example 8-1, 3-ethyl-6-(6-(methyl(2,2,6,6-tetramethylpiperidin-4-yl)amino)pyridazin-3-yl)quinolin-7-ol], which “SMN Activity (fold activation over DMSO control)” value [1] is on record?
Answer: 2.9 fold

Question: And the EC50 [2]?
Answer: 86 nM

Question: What does the source list for `CC(C)c1cnc2cc(O)c(-c3ccc(N(C)C4CC(C)(C)NC(C)(C)C4)nn3)cc2c1` [Example 8-2, 3-isopropyl-6-(6-(methyl(2,2,6,6-tetramethylpiperidin-4-yl)amino)pyridazin-3-yl)quinolin-7-ol]?
Answer: SMN Activity (fold activation over DMSO control) [1]: 2.50 fold; EC50 [2]: 190 nM

Question: With `CN(c1ccc(-c2cc3ccc(=O)[nH]c3cc2O)nn1)C1CC(C)(C)NC(C)(C)C1` [Example 9-1, 7-hydroxy-6-(6-(methyl(2,2,6,6-tetramethylpiperidin-4-yl)amino)pyridazin-3-yl)quinolin-2(1H)-one] as the molecule, how does the “SMN Activity (fold activation over DMSO control)” value [1] read?
Answer: 2.25 fold

Question: And the EC50 [2]?
Answer: 30 nM

Question: What does the source list for `CN(c1ccc(-c2cc3ccc(=O)n(C)c3cc2O)nn1)C1CC(C)(C)NC(C)(C)C1` [Example 9-2, 7-hydroxy-1-methyl-6-(6-(methyl(2,2,6,6-tetramethylpiperidin-4-yl)amino)pyridazin-3-yl)quinolin-2(1H)-one]?
Answer: SMN Activity (fold activation over DMSO control) [1]: 2.25 fold; EC50 [2]: 7 nM

Question: Which “SMN Activity (fold activation over DMSO control)” value [1] does the source give for `COc1cc(C)nc2cc(O)c(-c3ccc(N(C)C4CC(C)(C)NC(C)(C)C4)nn3)cc12` [Example 10-1, 4-methoxy-2-methyl-6-(6-(methyl(2,2,6,6-tetramethylpiperidin-4-yl)amino)pyridazin-3-yl)quinolin-7-ol] here?
Answer: 3.3 fold

Question: And the EC50 [2]?
Answer: 10 nM
